We go through 92 molecules from a melting point compilation (Tetko et al.; mined from patent text by program, amines drawn as free bases though some values may be those of a salt).

SMILES strings stand for the structures. Bounds are passed on as bounds.

In the case of `CCCCC(F)c1nc[nH]c(=O)c1Cl` (configuration not stated), the melting point lay in the range of 157 to 160 °C.
`CCNc1ncc2cc(-c3c(Cl)cccc3Cl)c(=O)n(C)c2n1` came in with a melting point of 180 to 182 °C.
`CN(c1ccnc(Cl)n1)n1cccc1` returned a melting point of 102 to 103 °C.
Next, `Cc1c(NC(=O)N2C[C@H](O[Si](C)(C)C(C)(C)C)C[C@H]2CO)ccc(C#N)c1Cl`: 169 to 171 °C.
Take `O=C(O)c1c[nH]c(Br)c1-c1ccc(Cl)cc1`: the melting point is greater than 205 °C.
As for `CC(C)(C)c1ccc(CCC(CO)CC2CCCCC2)cc1NC(=O)CC1c2ccccc2Oc2ccccc21` (configuration not stated), the melting point fell in the range of 130 to 131 °C.
As for `CC1CC(C)CN(Cc2ccc(NC(=O)C#Cc3ccc(-c4ccc(Cl)cc4)cc3)cc2)C1` (configuration not stated), the melting point lay in the range of 209 to 214 °C.
`CC1(C)CCc2cc(C(=O)c3ccc4cc(C(=O)O)ccc4c3)ccc2O1` yielded a melting point of 269 °C.
Next, `CC(=O)N1CCN(c2cc3nc(C(C)(C)C)sc3cc2N)CC1`: 182 to 185 °C; `Fc1cccc2c(NCCc3nc(-c4ccccc4)cs3)ccnc12`: 134 to 135 °C.
In the case of `COc1cccc(-c2ccc3ccc(NC(=O)c4cccc(Br)c4)nc3n2)c1` it was 104 °C; in that of `O=C1O[C@@H]2C[C@@]1(O)CC[C@H]2O`, 212 to 214 °C; in that of `O=C(O)c1ccccc1COc1cccc(Br)c1`, 158 to 159 °C.
Next, `Cc1ccc(I)c(CC(=O)N(C)C)c1`: 47 to 49 °C; `O=C(O)COc1ccc(SCc2ccc(OCc3ccc(C(F)(F)F)cc3)cc2)c2c1CCC2`: 145 °C; `NS(=O)(=O)c1ccc(-c2noc(-c3cnn4c(C(F)(F)F)cc(-c5ccc(C(F)(F)F)cc5)nc34)n2)cc1`: 275 °C.
Consider `Fc1ccc2[nH]cc(CCCNCCOc3cccc4[nH]ccc34)c2c1`, for which the melting point was in the range of 70 to 73 °C.
In the case of `CCC(C)(C)Nc1c(NCc2cc3cc(C#N)ccc3o2)c(=O)c1=O` it was 171 to 173 °C.
Next, `COc1cc(OC)c2c(=O)[nH]c(-c3cc(C)c(OCCO)c(C)c3)cc2n1`: 225 °C; `O=C(c1ccccc1Cl)c1ccccc1I`: 62 to 64 °C.
Next, `COc1ccc(-c2cc(OCC(=O)O)nc(Nc3ccc(OC)c(Cl)c3)n2)cc1`: 258 to 260 °C; `CSCc1cn(C)c2c(F)cccc2c1=O`: 165 to 167 °C; `O=C(O)c1cc2cc(Cl)ccc2nc1N[C@@H](Cc1ccc(Cl)cc1)C(=O)O`: 163 to 168 °C.
The molecule `O=C(O)c1ccc(OCCNC(=O)C2Cc3ccccc3N2S(=O)(=O)c2ccc(-c3ccc(F)cc3)cc2)cc1F` (configuration not stated) displayed a melting point of 109 to 113 °C.
In the case of `CSC(=S)Nc1ccc2c(c1)OCO2`, the melting point was in the range of 114 to 115 °C.
In the case of `COc1ccc(S(=O)(=O)NCCCO)c(OC)c1OC` it was 95 to 97 °C; in that of `Nc1ccccc1C(=O)C=Cc1ccncc1`, 168 °C.
Next, `O=C1CCC(N2Cc3c(CNC(=O)c4ccccn4)cccc3C2=O)C(=O)N1` (configuration not stated): 254 to 256 °C.
In the case of `COC(=O)CCCc1cc2cc(C(F)(F)F)ccc2n1S(=O)(=O)c1cccc(C(C)C)c1` it was 115 °C.
Regarding `O=S(=O)(CC(F)(F)F)c1nc2cc(Cl)ccc2[nH]1`, the melting point was 161 to 164 °C.
In the case of `CC(=O)Nc1ccc(SC2OC(CO)C(O)C(O)C2O)cc1` (configuration not stated) it was 160 to 163 °C.
In the case of `Brc1cn2c(Br)cnc2c(NCc2ccco2)n1` it was 143 °C; in that of `CCCCSc1nnc(N(C)C(=O)NC)s1`, 135 to 137 °C.
As to `CCOC(=O)c1cc2cc(OCCCS(C)(=O)=O)cc([N+](=O)[O-])c2[nH]1`, the melting point lay in the range of 162 to 163 °C.
Next, `COCCCNS(=O)(=O)NC(=O)OCc1ccc(OCCOC)cc1Oc1ncc(C(F)(F)F)cc1Cl`: 149 to 150 °C; `NCCNC(=S)Nc1c(Br)cccc1Br`: 155 to 157 °C; `Cc1cc(=O)oc2nn(Cc3ccncc3)c(C)c12`: 177 to 180 °C.
Next, `N#Cc1c(C(F)(F)F)ccc(Cl)c1Cl`: 53 to 54 °C; `CCCCCCCCCCc1nnn(C(C(=O)O)c2ccccc2)n1` (configuration not stated): 62 to 64 °C; `CN1Cc2c(C(=O)OC(C)(C)C)ncn2-c2ccncc2C1=O`: 214 to 215 °C.
In turn, `CN(C)C(=O)c1c(-c2ccccc2F)ccc2ccccc12` registered a melting point of 105 to 106 °C.
Next, `COc1cc(-c2cc(C(C)C)nn2C)cc2oc(=O)c(C)c(C)c12`: 125 to 126 °C; `CCC(OC(C)=O)c1ccc(Cl)c2nc3n(c12)CCCN3c1ncc(Cl)cc1Cl` (configuration not stated): 157 to 159 °C; `CCCCCCCCN(c1c([O-])[c+](N(CCCCCCCC)C2CC(C)(C)NC(C)(C)C2)[c+]1[O-])C1CC(C)(C)NC(C)(C)C1`: 171 to 175 °C.
Next, `COc1ccc2cc(CCC(C)=O)cc(F)c2c1`: 69 to 70 °C; `CSC1NC(=O)N(c2ccc(C)cc2)C(=O)N1N=C(C)C` (configuration not stated): 170 to 173 °C.
In turn, `COC(=O)C(CC(C)C)NC(=O)C(C)NC(=O)OCc1ccccc1` (configuration not stated) yielded a melting point of 65 to 68 °C.
Next, `CC(=O)C1CCC2=C(C1)C1OC2c2cc3ccccc3cc21` (configuration not stated): 158 to 160 °C; `COC1=C(C(=O)c2ccc(C)cc2)C(c2ccc(C(C)C)cc2)N(c2ncc(S(=O)(=O)c3ccc([N+](=O)[O-])cc3)s2)C1=O` (configuration not stated): 237 °C; `CCCCCCCCCCc1sc2c(sc3c2sc2c4sccc4sc23)c1CCCCCCCCCC`: 50.9 to 52.5 °C.
Next, `CC(=O)N1CCc2cc(Cl)ccc21`: 115 to 116 °C; `COc1ccc(C(N)CCO)cc1OC` (configuration not stated): 63.5 to 65.5 °C.
In the case of `O=S1(=O)NCN(C2CC2)c2cc(F)c(Cl)cc21` it was 155 to 158 °C.
For `CC(c1ccc(O)cc1)C(CS)C(=O)NC(Cc1ccc(O)cc1)C(=O)O` (configuration not stated), the melting point worked out at 115 °C.
In turn, `CC12CCC3c4ccc(O)c([N+](=O)[O-])c4CCC3C1CCC2=O` (configuration not stated) yielded a melting point greater than 250 °C.
Molecule `COc1ccc(C2=Nc3ccc(N4CCOCC4)cc3C(=O)C2)cc1` had a melting point of 302 to 304 °C.
Next, `CCCCCc1ccc(-c2ccc(CCC3(C#N)CCCC(C)C3)cc2)cc1` (configuration not stated): 73 °C; `COc1ccc(Nc2nc3cccc(-c4ccc(CN5CCS(=O)(=O)CC5)cc4)n3n2)cc1`: 241 °C.
In the case of `CNC(=O)c1cnc(OCC(O)CNC(C)C)c(Cl)c1` (configuration not stated), the melting point was in the range of 130 to 132 °C.
In the case of `CNC1CN(CCO)CCN1c1ncc(SC)c(Cl)n1` (configuration not stated) it was 120 to 122 °C; in that of `CN1CCN(c2ccc(-c3cnc4c(c3)C(O)CCN4)cn2)CC1` (configuration not stated), 124 to 128 °C.
Next, `COc1ccc(-n2cc(C(F)(F)F)nc2-c2ccc(OC)nc2)cc1`: 90 to 92 °C; `CC1CC(=O)C=C(c2ccc(OCC(=O)O)c(Cl)c2Cl)C1` (configuration not stated): 187 to 190 °C; `CC(N=c1cccccc1NC(C)c1ccccc1)c1ccccc1` (configuration not stated): 74 °C.
Molecule `COCCOc1ccc(/C=C/C(=O)O)c(Oc2ncc(Br)cc2C)c1` showed a melting point of 157 to 158 °C.
Next, `O=C(c1ccccc1)c1c(O)c2c(C(=O)O)cccc2[nH]c1=O`: greater than 300 °C.
In the case of `NNP(=S)(Oc1ccccc1)Oc1ccccc1` it was 59 to 61 °C; in that of `CCCCOc1c(CNC(=O)OC(C)(C)C)n(CC(C)C)c(=O)c2ccc(-c3nc(C)c(C(N)=O)s3)cc12`, 234 °C.
Next, `COc1cc(C)c(NCCO)cc1N`: 148 °C; `CCC(CC)(CC(=O)Nc1cccc(OCc2ccc3ccc(C(F)(F)F)cc3n2)c1)C(=O)O`: 85 to 86 °C.
`Cc1ccc(-c2ccc3c(c2)CC[C@H]2N(C)C(=O)CC[C@]32C)cc1` gave a melting point of 178 °C.
Next, `COc1ccc(COC(=O)c2ncn3c2[C@@H]2CCCN2C(=O)c2c(Cl)cccc2-3)cc1`: 185 to 186 °C.
As for `COc1ccc(-c2cc[nH]c(=O)n2)cc1OC1CC2CCC1C2` (configuration not stated), the melting point turned out to be 220 °C.
Regarding `CCCCCCCCCCCCNC(=O)N(C)C[C@H](O)[C@@H](O)[C@H](O)[C@H](O)CO`, the melting point turned out to be 117 °C.
Next, `CC1=C(c2ccccc2)C(=O)N(C(C)(C)c2cc(Cl)c(F)c(Cl)c2)CC1`: 154 to 159 °C; `COC(=O)c1cc(F)c(F)c2c1NC(C)C2` (configuration not stated): 50 to 52 °C.
Take `BrCc1nsc2nc3ccccc3n12`: the melting point fell in the range of 242 to 244 °C.
In the case of `CCOC(=O)c1cc(=O)c2ccccc2[nH]1` it was 210 to 212 °C; in that of `Cn1nc(C(F)F)cc1O`, 133 °C; in that of `CSc1cc(C)c(O)c(C)c1SC`, 98 to 100 °C.
Next, `CCCCCN(CCC12CC3CC(CC(C3)C1)C2)C(=O)NCCc1ccncc1`: 107 to 118 °C; `OC(Cn1cncn1)(c1ccccc1)c1ccccc1`: 128 to 129 °C.
As to `Cc1cccc(N2CC(C)C(N)=N2)n1` (configuration not stated), the melting point lay within 181 to 185 °C.
Next, `OC1CSC(Sc2ccccc2)C(O)C1O` (configuration not stated): 150 to 151 °C.
In the case of `Cc1ccc(CSCCCCCOc2ccc(C3=C(c4ccccc4)CCCc4cc(O)ccc43)cc2)cc1` it was 165 to 169 °C; in that of `Nc1cccnc1N1CCN(C(=O)c2ccc(C(=O)O)cn2)CC1`, 137 to 140 °C.
Next, `C[C@@H](c1ccc(-c2[nH]nnc2Cl)cc1)[C@](O)(Cn1cncn1)c1ccc(F)cc1F`: 113 to 115 °C; `Cc1ccccc1Nc1nc(Cl)c2sccc2n1`: 87 to 89 °C; `Cc1ccc(S(=O)(=O)N(C)c2ccc(Cl)cc2C(N)=S)cc1`: 180 to 182 °C.
With `CCc1cc(Br)cc2c1C(=O)C(=O)N2`, the melting point was 229 to 230 °C.
In the case of `CC(C)(C)c1ccc(NC(=N)Nc2ccc(C(C)(C)C)cc2)cc1` it was 161 to 162 °C.
In the case of `CC(=O)OC1CCC2(C)C(=CCC3C2CCC2(C)C(C(C)CCC(=O)O)CCC32)C1` (configuration not stated) it was 192 to 193 °C.
